# From patent US20050064519A1, “Methods of using GST-Omega-2” (Pfizer Inc., priority 2003, published 2005)
# Key:
# [1] = molecular target: T1, flag-tagged human GST-Omega-2 (Homo sapiens, UniProt Q9H4Y5); experiment: Competitive binding assay: incorporation of [14C]Compound 2 into GST-Omega-2 in infected SF9 cells; design: expressed in transfected cells; host or cells: SF9 insect cells, baculovirus infection (pFASTBAC-flag shuttle vector); conditions: 30 min preincubation, then 2 µM [14C]Compound 2 for 60 min, relative to control cultures
# T1 sequence (Q9H4Y5 1-242 limits assumed): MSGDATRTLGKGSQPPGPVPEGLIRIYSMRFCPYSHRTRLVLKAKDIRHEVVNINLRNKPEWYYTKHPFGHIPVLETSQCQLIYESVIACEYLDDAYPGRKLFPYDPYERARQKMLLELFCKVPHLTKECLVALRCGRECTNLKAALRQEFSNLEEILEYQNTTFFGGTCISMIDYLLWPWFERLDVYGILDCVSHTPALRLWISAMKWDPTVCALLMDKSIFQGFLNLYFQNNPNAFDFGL
# Protocol: Insect cells (SF9) were infected with a baculovirus construct encoding flag-tagged human GST-Omega-2 (see Example 5) and seeded into individual 10 cm dishes. After 48 hr of infection, media were removed and replaced with fresh medium (6 ml) containing 100, 200 or 400 μM Compound 4, 10 μM Compound 2, or neither compound. The cultures were incubated for 30 min at room temperature after which 2 µM [^14C]Compound 2 was introduced and the cultures were incubated for 60 min at room temperature. The cells then were harvested by centrifugation, washed with PBS to remove unbound radioactivity, and solubilized by detergent extraction. GST-Omega-2 was recovered by immunoprecipitation with anti-Flag M2 antibody, and the resulting immunoprecipitates were fractionated by SDS/PAGE; the dried gel subsequently was analyzed by phosphorimager analysis.
# [2] = molecular target: T1, flag-tagged human GST-Omega-2; experiment: Diarylsulfonylurea (Compound 2) affinity column binding of GST-Omega-2 from HEK293 lysate, Western detection; design: expressed in transfected cells; conditions: 5 mM in buffer; Western blot of column fractions
# Source text: Human embryonic kidney (HEK293) cells were transfected with a pcDNA3.1 mammalian expression vector encoding FLAG-tagged human GST-Omega-2. Stable transfectants isolated by growth in the presence of G418 were subcloned and a high expressing colony was identified. Four confluent 10 cm dishes of this cell line were established after which the cells were harvested and then disrupted by nitrogen cavitation. The resulting cell lysate was clarified by centrifugation and the supernatant fraction was recovered and applied to an affinity column (1 ml) composed of 1-(1,2,3,5,6,7-Hexahydro-s-indacen-4-yl)-3-[2-fluoro-5-oxiranylbenzenesulfonyl]-urea (hereinafter referred to as Compound 2 as per U.S. Patent Publication 2002-0034764) attached to Thiolpropyl-Sepharose. Compound 2 is a diarylsulfonylurea that contains an epoxide group which can react to form a covalent linkage with Thiolpropyl-Sepharose. In some cases, the cell extract was applied to the column in a buffer containing 5 mM of a competitive inhibitor, 1-(1,2,3,5,6,7-Hexahydro-s-indacen-4-yl)-3-[4-(1-hydroxy-1-methylethyl)-furan-2-sulfonyl]-urea (hereinafter referred to as Compound 4 as per the '372 application). The column was washed with buffer then eluted with a denaturing detergent, sodium dodecyl sulfate (SDS). Individual 1 ml fractions were collected and aliquots of each were fractionated by SDS/PAGE. […]
# [3] = molecular target: T2, flag-tagged murine GST-Omega-2 (Mus musculus, UniProt Q8K2Q2); experiment: Labeling of murine GST-Omega-2 by [14C]Compound 2 in infected SF9 cells, SDS/PAGE autoradiography; type: binding; conditions: 60 min
# T2 construct: expressed in transfected cells; host or cells: SF9 insect cells, baculovirus infection (pFASTBAC-flag shuttle vector)
# T2 sequence (Q8K2Q2 1-248): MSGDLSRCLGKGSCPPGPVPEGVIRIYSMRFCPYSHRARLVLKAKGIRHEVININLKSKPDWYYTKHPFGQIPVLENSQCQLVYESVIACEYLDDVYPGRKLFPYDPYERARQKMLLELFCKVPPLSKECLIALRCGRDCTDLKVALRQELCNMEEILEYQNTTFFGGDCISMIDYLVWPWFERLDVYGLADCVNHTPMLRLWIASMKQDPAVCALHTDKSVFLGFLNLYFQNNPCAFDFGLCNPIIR
# Protocol: (§1) Insect cells (SF9) were infected with a baculovirus construct encoding flag-tagged murine GST-Omega-2 (see Example 5) and seeded into individual 10 cm dishes. For comparison, SF9 cells also were infected with a baculovirus construct encoding IKK[…] (IkappaB kinase gamma). After 48 hr of infection, media were removed and replaced with fresh medium (6 ml) containing from 0.01 to 10 μM [^14C]Compound 2. Cells were incubated with the radiolabeled diarylsulfonylurea for 60 min (at room temperature) and then collected by centrifugation and washed to remove unbound test agent. Each cell pellet then was suspended in 5 ml of PBS and divided into 2 fractions. Cells within one of these fractions (⅕ of the total) were collected by centrifugation and suspended in 150 µl of SDS/PAGE disaggregation buffer. Cells within the other fraction (⅘ of the total) were collected by centrifugation, solubilized by detergent extraction, and recombinant GST-Omega-2 was recovered by immunoprecipitation with the anti-Flag M2 antibody. Both the total cell lysates and the immunoprecipitates were fractionated by SDS/PAGE and the dried gels were analyzed by autoradiography.
# [4] = molecular target: T1, flag-tagged human GST-Omega-2; experiment: Labeling of GST-Omega-2 by [14C]Compound 2 in infected SF9 cells, SDS/PAGE autoradiography; type: binding; design: expressed in transfected cells; host or cells: SF9 insect cells, baculovirus infection (pFASTBAC-flag shuttle vector); conditions: 60 min
# Protocol: as §1, with “human” for “murine”, “(I-κB kinase-γ/NF-κB essential modulator (NEMO)).” for “(IkappaB kinase gamma).”, “μM of” for “μM”
# [5] = 1 µM, room temperature, versus IKK-expressing control cells
# [6] = 10 µM (highest test concentration), control and GST-Omega-2-expressing cells
compound,measurement,setting,value
"O=C(Nc1c2c(cc3c1CCC3)CCC2)NS(=O)(=O)c1cc(C2CO2)ccc1F (centres unmarked) [Compound 2, 1-(1,2,3,5,6,7-Hexahydro-s-indacen-4-yl)-3-[2-fluoro-5-oxiranylbenzenesulfonyl]-urea]",inhibition of incorporation of [14C]Compound 2 into GST-Omega-2,[1]; 10 µM unlabeled compound,90%
"CC(C)(O)c1coc(S(=O)(=O)NC(=O)Nc2c3c(cc4c2CCC4)CCC3)c1 [Compound 4, 1-(1,2,3,5,6,7-Hexahydro-s-indacen-4-yl)-3-[4-(1-hydroxy-1-methylethyl)-furan-2-sulfonyl]-urea]",competition with binding of GST-Omega-2 to the diarylsulfonylurea affinity column,[2],competed with the specific binding of GST-Omega-2 to the diarylsulfonylurea affinity column
same,inhibition of incorporation of [14C]Compound 2 into GST-Omega-2,[1]; 100 µM test compound,63%
same,inhibition of incorporation of [14C]Compound 2 into GST-Omega-2,[1]; 200 µM test compound,73%
same,inhibition of incorporation of [14C]Compound 2 into GST-Omega-2,[1]; 400 µM test compound,84%
O=C(Nc1c2c(cc3c1CCC3)CCC2)NS(=O)(=O)c1cc(C2CO2)ccc1F (centres unmarked) [[^14C]Compound 2],polypeptides labeled in infected cells,[3]; [5],only the polypeptide migrating as GST-Omega-2 appeared labeled
same,polypeptides labeled in infected cells,[3]; [6],appeared to incorporate into several polypeptides
same,incorporation of radioactivity into anti-flag immunoprecipitated GST-Omega-2,[3]; 0.01 to 10 μM,dose-dependent increase in the incorporation of radioactivity into the immunoprecipitated protein
same,polypeptides labeled in infected cells,[4]; [5],only the polypeptide migrating as GST-Omega-2 appeared labeled
same,polypeptides labeled in infected cells,[4]; [6],appeared to incorporate into several polypeptides
same,incorporation of radioactivity into anti-flag immunoprecipitated GST-Omega-2,[4]; 0.01 to 10 μM,dose-dependent increase in the incorporation of radioactivity into the immunoprecipitated protein
